# Values quoted from earlier work, collected in PMC9217999 (Targeted Oncology, 2022).
# Assays:
# Details in all cases: cited from earlier work
# NF1-associated PN = system: NF1-associated PN
# recurrent/refractory LGG = system: recurrent/refractory LGG
# NF1 and inoperable PN = system: NF1 and inoperable PN
SMILES,Responses ongoing (NF1-associated PN; 10/12 responses),"Patients with PR (NF1-associated PN; 12/26 patients, preliminary data)","PR (bidimensional measurements on T2/FLAIR) (recurrent/refractory LGG; 5/25, four with BRAF aberrations)",2-year PFS (recurrent/refractory LGG),Confirmed PR rate (NF1 and inoperable PN),PR rate (NF1 and inoperable PN),Stable disease (NF1 and inoperable PN)
CC(=O)Nc1cccc(-n2c(=O)n(C3CC3)c(=O)c3c(Nc4ccc(I)cc4F)n(C)c(=O)c(C)c32)c1 [trametinib],83%,46%,–,–,–,–,–
Cn1cnc2c(F)c(Nc3ccc(Br)cc3Cl)c(C(=O)NOCCO)cc21 [selumetinib],–,–,20%,69%,68%,74%,12%
